{
  "source": "ChEMBL document CHEMBL1177879",
  "about": "“Transition metal complexes of a new hexadentate macroacyclic N2O4-donor Schiff base: inhibitory activity against bacteria and fungi” (2010)",
  "conditions_in_all_cases": "read-out: IZ",
  "key": {"[1]": {"tested_on": "Bacillus cirroflagellosus", "experiment": "Antibacterial activity against Bacillus cirroflagellosus at 50 ug after 48 hrs by agar well diffusion assay"}, "[2]": {"tested_on": "Aspergillus niger", "experiment": "Antifungal activity against Aspergillus niger at 50 ug after 48 hrs by agar well diffusion assay", "assay_type": "functional"}, "[3]": {"tested_on": "Candida albicans", "experiment": "Antifungal activity against Candida albicans at 50 ug after 48 hrs by agar well diffusion assay", "assay_type": "functional"}, "[4]": {"tested_on": "Escherichia coli", "experiment": "Antibacterial activity against Escherichia coli at 50 ug after 48 hrs by agar well diffusion assay", "assay_type": "functional"}},
  "data": [
    {"molecule": "O=NN(CC(=O)N/N=C\\C=N\\NC(=O)CN(N=O)c1ccccc1)c1ccccc1", "values": [
      {"measurement": "zone of inhibition at 50 µg/disc", "setting": "[1]", "result": 16, "unit": "mm"},
      {"measurement": "zone of inhibition at 50 µg/disc", "setting": "[2]", "result": 16.7, "unit": "mm"},
      {"measurement": "zone of inhibition at 50 µg/disc", "setting": "[3]", "result": 19.3, "unit": "mm"},
      {"measurement": "zone of inhibition at 50 µg/disc", "setting": "[4]", "result": 16.3, "unit": "mm"}
    ]},
    {"molecule": "COC1=CC(=O)C[C@@H](C)[C@]12Oc1c(Cl)c(OC)cc(OC)c1C2=O", "note": "[GRISEOFULVIN]", "values": [
      {"measurement": "zone of inhibition at 50 µg/disc", "setting": "[2]", "result": 29, "unit": "mm"},
      {"measurement": "zone of inhibition at 50 µg/disc", "setting": "[3]", "result": 29.3, "unit": "mm"}
    ]},
    {"molecule": "CCn1cc(C(=O)O)c(=O)c2cc(F)c(N3CCNCC3)cc21", "note": "[NORFLOXACIN]", "values": [
      {"measurement": "zone of inhibition at 50 µg/disc", "setting": "[1]", "result": 28.3, "unit": "mm"},
      {"measurement": "zone of inhibition at 50 µg/disc", "setting": "[4]", "result": 28.3, "unit": "mm"}
    ]}
  ]
}
